In one assay the test system is dry eye patients. In words: Clinical test, oral uridine in dry eye patients (double blind, placebo). In kind it is in vivo, human. Conditions: oral uridine 100 mg/day, three times a day for 3 months, versus placebo. The protocol:
At initial point of treatment and two weeks, one month, two months and three months after initiation of treatment, changes in corneal symptoms and conditions and the presence/absence of adverse side effects were objectively evaluated by slit-lamp microscopic examination, measurement of intraocular pressure, ophthalmoscopic examination, Schirmer test, impression cytology and analysis photography of anterior eye segment. In addition, subjective questionnaires of individual patients were prepared, and changes in subjective symptoms of patients and the presence/absence of adverse side effects were observed.

The test system of assay [1] is corneal keratocytes. As to the kind of experiment: Proliferation of corneal keratocytes (CCK-8). In kind it is cell-based. Conditions: uridine 0 μM to 10 μM, 48 hours; effect from 0.1 μM or higher; FIG. 4. The protocol:
Corneal keratocytes were incubated in a 96-well plate and stimulated with uridine (0 μM to 10 μM) for 48 hours. Cell count was carried out at 450 nm using a Cell counting kit-8 (CCK-8).

The test system of assay [2] is ocular epithelial cells. In words: Production of glycosaminoglycan in corneal epithelial cells (Biocolor assay kit). In kind it is cell-based. Conditions: uridine 0 μM to 50 μM, 48 hours, concentration-dependent, FIG. 5. How it is done:
Ocular epithelial cells were stimulated for 48 hours by treatment with uridine (0 μM to 50 μM). The cell culture was collected, and an amount of glycosaminoglycan was measured at 550 nm using a Biocolor assay kit.

In assay [3] the test system is corneal keratocytes. In words: Production of nitric oxide (NO) in H2O2-stimulated corneal keratocytes (Griess reagent). In kind it is cell-based. Conditions: 100 μM H2O2, then uridine 0 μM to 100 μM, 48 hours, effect up to 50 μM, concentration-dependent, FIG. 3. A general note: Griess reagent forms a coloured azo dye with nitrite.
In assay [4] the test system is ocular epithelial cells. As to the kind of experiment: Production of nitric oxide (NO) in H2O2-stimulated corneal epithelial cells (Griess reagent). In kind it is cell-based. The following applies: 100 μM H2O2, then uridine 0 μM to 100 μM, 48 hours, concentration-dependent, FIG. 6.
Assay [5] has as its system corneal keratocytes. In words: Production of glycosaminoglycan in corneal keratocytes (Biocolor assay kit). In kind it is cell-based. Conditions: uridine 0 μM to 50 μM, 48 hours, effect from 1 μM, concentration-dependent, FIG. 2. How it is done: Corneal keratocytes were stimulated for 48 hours by treatment of the cells with uridine (0 μM to 50 μM). The cell culture was collected, and an amount of glycosaminoglycan was measured at 550 nm using a Biocolor assay kit.

In another assay the test system is dry eye-induced rabbits. As to the kind of experiment: Concanavalin A-induced dry eye in rabbits, eye drops, impression cytology. Conditions: uridine eye drops in phosphate-buffered saline (1% and 5%), compared to 0.1% hyaluronic acid positive control and PBS control; FIG. 7. In kind it is in vivo, rabbit. How it is done: Dry eye syndrome was induced by causing ocular inflammation via injection of concanavalin A into the lacrimal gland of rabbits (Journal of Ocular Pharmacology & Therapeutics 21(2), 139-148, 2005). Uridine was dissolved to a concentration of […] in a phosphate-buffered saline solution, respectively, and the resulting solutions were used as eye drops. A commercially available 0.1% hyaluronic acid preparation was used as a positive control group, and a phosphate-buffered saline solution was used as a control group. 1% and 5% uridine preparations, the hyaluronic acid preparation and the phosphate-buffered saline solution were respectively dropped into eyes of the dry eye-induced rabbits, and the impression cytology of ocular cells was performed to confirm alleviation of dry eye syndrome.

Assay [6] relates to corneal keratocytes. In words: Production of hyaluronic acid in corneal keratocytes (b-HABP plate assay). In kind it is cell-based. The following applies: uridine 0 μM to 10 μM, 48 hours; effect up to 5 μM, concentration-dependent; FIG. 1. The protocol: Corneal keratocytes were stimulated for 48 hours by treatment of the cells with uridine (0 μM to 10 μM). 100 μl of the cell culture was collected, and reacted with 100 μl of biotinylated hyaluronic acid binding protein (b-HABP, 50 ng/mL) at room temperature for 1 hour. On the day prior to experiments, 20 μg/mL of HA and a solution of 20 mM Na2CO3 were added to a 96-well plate which was then stored in a refrigerator for 24 hours, and washed with a standard assay buffer (SAB) three times. 1% BSA was added to the 96-well plate which was then reacted at room temperature for 90 min and washed with SAB three times to thereby prepare an HA-coated plate. The above-prepared cell culture was added to the HA-coated plate, and reacted with stirring at room temperature for 1 hour. Thereafter, the cell culture thus reacted was washed with SAB three times, followed by addition of Extra-avidin alkaline phosphatase (1:80000), reaction at room temperature for 30 min, and washing with SAB three times. 1 mg/mL of a disodium p-nitrophenyl solution in 100 mM NaCl and 5 mM MgCl was added to the cell culture which was then reacted for 20 to 60 min. Thereafter, 3N NaOH was added to terminate the reaction, and an amount of hyaluronic acid was measured at 405 nm.

For `O=c1ccn([C@@H]2O[C@H](CO)[C@@H](O)[C@H]2O)c(=O)[nH]1` [uridine], the “tear-secretion test (Schirmer test)” value in the assay with dry eye patients (FIG. 8) was “significant difference”. Besides, in the assay on dry eye patients (FIG. 9), the corneal staining entry is recorded as “significant difference”. The proliferation of cells result with corneal keratocytes [1] is “promoted proliferation of cells”. Besides, the production of glycosaminoglycan entry in the assay on ocular epithelial cells [2] and in the assay with corneal keratocytes [5] was “promoted production of glycosaminoglycan” throughout. Also, the “production of nitric oxide (NO)” value in the assay with corneal keratocytes [3] and with ocular epithelial cells [4] was “inhibited production of nitric oxide (NO)” each time. In addition, in the assay on dry eye-induced rabbits, the “restoration of epithelial cells in the impression cytology of ocular cells” value is on record as “significant restoration of epithelial cells”. In addition, the “production of hyaluronic acid” value in the assay with corneal keratocytes [6] is “promoted production of hyaluronic acid”.

Source of the values: US20100272791A1, “COMPOSITION HAVING EFFECT ON TREATMENT AND PREVENTION OF DRY EYE SYNDROME” (MD BIOALPHA CO., LTD., priority 2005, published 2010).
